Data set [1] concerns Mycobacterium tuberculosis. As to the kind of experiment: Antibacterial activity against Mycobacterium tuberculosis H37Rv assessed as inhibition of bacterial growth incubated for 7 days by alamar blue assay. It counts as functional. The conditions noted are these: 168 h, time 7 day. Background: The colour change of resazurin is a common sign of viable cells or microbes.
For data set [2], the system named is Staphylococcus aureus. As to the kind of experiment: Antibacterial activity against Staphylococcus aureus ATCC25923 assessed as inhibition of bacterial growth incubated for 18 hrs by microdilution broth assay. The class given is functional. A general note: Dilution methods test growth across graded concentrations, often in twofold steps.
Data set [3] has as its system Enterococcus faecalis. As to the kind of experiment: Antibacterial activity against Enterococcus faecalis ATCC29212 assessed as inhibition of bacterial growth incubated for 18 hrs by microdilution broth assay. It counts as functional.
The subject of the next data set is Bacillus subtilis. As to the kind of experiment: Antibacterial activity against Bacillus subtilis ATCC6633 assessed as inhibition of bacterial growth incubated for 18 hrs by microdilution broth assay. It counts as functional.
Data set [4] deals with Staphylococcus epidermidis. As to the kind of experiment: Antibacterial activity against Staphylococcus epidermidis ATCC12228 assessed as inhibition of bacterial growth incubated for 18 hrs by microdilution broth assay. The class given is functional.
Data set [5] is described as follows: Cytotoxicity against African green monkey Vero cells incubated for 48 hrs by MTT assay. It counts as toxicity, cell-based, Chlorocebus sabaeus. Background: Tetrazolium dyes change colour on reduction, which living cells bring about.
Data set [6] concerns Staphylococcus aureus. The experiment in a line: Antibacterial activity against methicillin resistant Staphylococcus aureus clinical isolate 20-1 assessed as inhibition of bacterial growth incubated for 7 days by alamar blue assay. The class given is functional. The conditions noted are these: clinical isolate 20-1, 168 h, time 7 day.
Data set [7] concerns Staphylococcus aureus. The experiment in a line: Antibacterial activity against methicillin resistant Staphylococcus aureus clinical isolate 20-2 assessed as inhibition of bacterial growth incubated for 7 days by alamar blue assay. It counts as functional. The following applies: clinical isolate 20-2, 168 h, time 7 day.
In data set [8] the test system is Staphylococcus epidermidis. As to the kind of experiment: Antibacterial activity against methicillin resistant Staphylococcus epidermidis clinical isolate 20-1 assessed as inhibition of bacterial growth incubated for 7 days by alamar blue assay. The class given is functional. The conditions noted are these: clinical isolate 20-1, 168 h, time 7 day.
The test system of data set [9] is Staphylococcus epidermidis. As to the kind of experiment: Antibacterial activity against methicillin resistant Staphylococcus epidermidis clinical isolate 20-2 assessed as inhibition of bacterial growth incubated for 7 days by alamar blue assay. It counts as functional. The following applies: clinical isolate 20-2, 168 h, time 7 day.
The subject of data set [10] is Staphylococcus aureus. The experiment in a line: Antibacterial activity against vancomycin intermediate Staphylococcus aureus ATCC700699 assessed as inhibition of bacterial growth incubated for 7 days by alamar blue assay. The class given is functional. The following applies: ATCC700699, 168 h, time 7 day.
For a further data set, the system named is Enterococcus. As to the kind of experiment: Antibacterial activity against vancomycin resistant Enterococcus clinical isolate 20-1 assessed as inhibition of bacterial growth incubated for 7 days by alamar blue assay. It counts as functional. The following applies: clinical isolate 20-1, 168 h, time 7 day.
Data set [11] has as its system Staphylococcus aureus. As to the kind of experiment: Antibacterial activity against Linezolid resistant Staphylococcus aureus clinical isolate 20-1 assessed as inhibition of bacterial growth incubated for 7 days by alamar blue assay. It counts as functional. The conditions noted are these: clinical isolate 20-1, 168 h, time 7 day.
Data set [12] has as its system Staphylococcus aureus. As to the kind of experiment: Antibacterial activity against Linezolid resistant Staphylococcus aureus clinical isolate 20-2 assessed as inhibition of bacterial growth incubated for 7 days by alamar blue assay. The class given is functional. The following applies: clinical isolate 20-2, 168 h, time 7 day.
Data set [13] concerns Enterococcus faecalis. As to the kind of experiment: Antibacterial activity against Linezolid resistant Enterococcus faecalis clinical isolate 20-1 assessed as inhibition of bacterial growth incubated for 7 days by alamar blue assay. The conditions noted are these: clinical isolate 20-1, 168 h, time 7 day. The class given is functional.
The test system of data set [14] is Enterococcus faecalis. The experiment in a line: Antibacterial activity against Linezolid resistant Enterococcus faecalis clinical isolate 20-2 assessed as inhibition of bacterial growth incubated for 7 days by alamar blue assay. It counts as functional. The conditions noted are these: clinical isolate 20-2, 168 h, time 7 day.

Values after ≈ are worked out from the molar mass of the structure shown.

Data on twelve molecules can be found in ChEMBL document CHEMBL5608235, “Tricyclic Benzo[1,3]oxazinyloxazolidinones as Potent Antibacterial Agents against Drug-Resistant Pathogens” (J Med Chem, 2024).

In general, MIC refers to the lowest concentration that inhibits growth of the organism. What is called IC50 is the concentration that inhibits the measured activity by half.

Turning to `CC(=O)NC[C@@H]1OC(=O)N2Cc3c(cc(F)c(-c4ccc(-c5nnn(C)n5)nc4)c3F)O[C@@H]12`, the minimal inhibitory concentration (MIC) in data set [1] was 0.74 µg/mL (≈ 1.62 µM); with Staphylococcus aureus [2], 1 µg/mL (≈ 2.19 µM); with Enterococcus faecalis [3] it was 2 µg/mL (≈ 4.37 µM); in the data set with Bacillus subtilis it was 0.125 µg/mL (≈ 0.273 µM); in data set [4], 2 µg/mL (≈ 4.37 µM); in the data set with Staphylococcus aureus [6], 1 µg/mL (≈ 2.19 µM). Also, the minimal inhibitory concentration (MIC) turned out to be 1 µg/mL (≈ 2.19 µM) with Staphylococcus aureus [7]; 0.5 µg/mL (≈ 1.09 µM) in data set [8]; 0.5 µg/mL (≈ 1.09 µM) in [9]; 1 µg/mL (≈ 2.19 µM) in the data set on Staphylococcus aureus [10]; 1 µg/mL (≈ 2.19 µM) in the data set on Enterococcus; 8 µg/mL (≈ 17.5 µM) with Staphylococcus aureus [11]. Moreover, the minimum inhibitory concentration (MIC) with Staphylococcus aureus [12] came out at 8 µg/mL (≈ 17.5 µM); with Enterococcus faecalis [13], 2 µg/mL (≈ 4.37 µM); with Enterococcus faecalis [14], 2 µg/mL (≈ 4.37 µM). Further, the IC50 at 48 h in data set [5] is more than 64 µg/mL.

Consider `CC(=O)NC[C@@H]1OC(=O)N2Cc3cc(-c4ccc5c(c4)NC(=O)CO5)c(F)cc3O[C@@H]12`, for which the MIC in data set [1] worked out at 0.9 µg/mL (≈ 2.11 µM); with Staphylococcus aureus [2], 32 µg/mL (≈ 74.9 µM); in the data set with Enterococcus faecalis [3], 1 µg/mL (≈ 2.34 µM); in the data set with Bacillus subtilis it was 16 µg/mL (≈ 37.4 µM); in data set [4] it was 2 µg/mL (≈ 4.68 µM). In data set [5], the half-inhibitory concentration (IC50) at 48 h worked out at 40 µg/mL (≈ 93.6 µM).

With `COc1cc(-c2cc3c(cc2F)O[C@H]2[C@H](CNC(C)=O)OC(=O)N2C3)ccn1`, the minimum inhibitory concentration (MIC) amounted to 6.51 µg/mL (≈ 16.8 µM) in data set [1]; 4 µg/mL (≈ 10.3 µM) in the data set with Staphylococcus aureus [2]; 1 µg/mL (≈ 2.58 µM) with Enterococcus faecalis [3]; 0.5 µg/mL (≈ 1.29 µM) in the data set on Bacillus subtilis; 2 µg/mL (≈ 5.16 µM) in data set [4]. The same molecule showed an IC50 at 48 h in data set [5] of 36 µg/mL (≈ 92.9 µM).

As to `CC(=O)NC[C@@H]1OC(=O)N2Cc3c(cc(F)c(-c4ccc(C(C)=O)cc4)c3F)O[C@@H]12`, the minimal inhibitory concentration (MIC) was 0.93 µg/mL (≈ 2.23 µM) in data set [1]; 4 µg/mL (≈ 9.61 µM) in the data set on Staphylococcus aureus [2]; 0.25 µg/mL (≈ 0.6 µM) in the data set with Enterococcus faecalis [3]; 0.125 µg/mL (≈ 0.3 µM) in the data set with Bacillus subtilis; 0.25 µg/mL (≈ 0.6 µM) in data set [4]. For the same molecule, in data set [5], the IC50 at 48 h was more than 64 µg/mL.

As to `CC(=O)NC[C@H]1OC(=O)N2Cc3cc(-c4ccc(-c5nnn(C)n5)nc4)c(F)cc3O[C@@H]12`, the minimum inhibitory concentration (MIC) in data set [1] was found to be 0.54 µg/mL (≈ 1.23 µM); in the data set with Staphylococcus aureus [2], 0.125 µg/mL (≈ 0.284 µM); with Enterococcus faecalis [3], 0.5 µg/mL (≈ 1.14 µM); in the data set with Bacillus subtilis, 0.125 µg/mL (≈ 0.284 µM).

Consider `N#Cc1ccc(-c2c(F)cc3c(c2F)CN2C(=O)O[C@@H](CN)[C@@H]2O3)cc1`, for which the minimum inhibitory concentration (MIC) in [1] is 0.99 µg/mL (≈ 2.77 µM); in the data set with Staphylococcus aureus [2], 64 µg/mL (≈ 179 µM); in the data set with Enterococcus faecalis [3], more than 64 µg/mL; in the data set on Bacillus subtilis it was 32 µg/mL (≈ 89.6 µM); in data set [4], 32 µg/mL (≈ 89.6 µM). The same molecule came in with an IC50 at 48 h in data set [5] of 8 µg/mL (≈ 22.4 µM).

On to `CC(=O)NC[C@H]1OC(=O)N2Cc3c(cc(F)c(-c4ccc(C#N)nc4)c3F)O[C@H]12`, for which the MIC is more than 32 µg/mL in data set [1]; more than 64 µg/mL with Staphylococcus aureus [2]; more than 64 µg/mL in the data set on Enterococcus faecalis [3]; more than 64 µg/mL in the data set with Bacillus subtilis; more than 64 µg/mL in [4].

Regarding `CC(=O)NC[C@@H]1OC(=O)N2Cc3c(cc(F)c(-c4ccc(C#N)cc4)c3F)O[C@@H]12`, the MIC worked out at 3.41 µg/mL (≈ 8.54 µM) in data set [1]; 2 µg/mL (≈ 5.01 µM) with Staphylococcus aureus [2]; 0.25 µg/mL (≈ 0.626 µM) in the data set with Enterococcus faecalis [3]; 0.032 µg/mL (≈ 0.0801 µM) with Bacillus subtilis; 1 µg/mL (≈ 2.5 µM) in data set [4].

`CC(=O)NC[C@@H]1OC(=O)N2Cc3cc(-c4ccc(C(C)=O)cc4)c(F)cc3O[C@@H]12`: the minimum inhibitory concentration (MIC) is 0.74 µg/mL (≈ 1.86 µM) in data set [1]; 8 µg/mL (≈ 20.1 µM) in the data set with Staphylococcus aureus [2]; 1 µg/mL (≈ 2.51 µM) in the data set on Enterococcus faecalis [3]; 0.5 µg/mL (≈ 1.26 µM) with Bacillus subtilis; 2 µg/mL (≈ 5.02 µM) in [4]. In addition, in data set [5], 49 µg/mL (≈ 123 µM) corresponded to half-maximal inhibition (IC50 at 48 h).

Consider `N#Cc1ccc(-c2c(F)cc3c(c2F)CN2C(=O)O[C@@H](CN)[C@@H]2O3)cn1`, for which the MIC is 0.5 µg/mL (≈ 1.4 µM) in [1]; more than 64 µg/mL with Staphylococcus aureus [2]; more than 64 µg/mL in the data set on Enterococcus faecalis [3]; more than 64 µg/mL in the data set on Bacillus subtilis; 64 µg/mL (≈ 179 µM) in data set [4]. In data set [5], the IC50 at 48 h was found to be 59 µg/mL (≈ 165 µM).

For `CC(=O)NC[C@@H]1OC(=O)N2Cc3cc(-c4ccc(C(F)(F)F)nc4)c(F)cc3O[C@@H]12`, the MIC worked out at 6.7 µg/mL (≈ 15.8 µM) in [1]; 32 µg/mL (≈ 75.2 µM) in the data set on Staphylococcus aureus [2]; 1 µg/mL (≈ 2.35 µM) in the data set on Enterococcus faecalis [3]; 1 µg/mL (≈ 2.35 µM) in the data set on Bacillus subtilis; 0.5 µg/mL (≈ 1.18 µM) in [4].

As for `COC(=O)NC[C@@H]1OC(=O)N2Cc3cc(-c4ccc(C(C)=O)cc4)c(F)cc3O[C@@H]12`, the minimum inhibitory concentration (MIC) in [1] was 1.74 µg/mL (≈ 4.2 µM); in the data set on Staphylococcus aureus [2] it was more than 64 µg/mL; in the data set on Enterococcus faecalis [3], 0.5 µg/mL (≈ 1.21 µM); with Bacillus subtilis it was 0.125 µg/mL (≈ 0.302 µM); in data set [4], 0.5 µg/mL (≈ 1.21 µM).
